For 101 molecules, Kd results are on record in PubChem BioAssay AID608 (Sanford-Burnham Center for Chemical Genomics, 2007).

The source made the active and inactive calls. How the calls were made is not given here.

In this test the target is Peptidyl-prolyl cis-trans isomerase FKBP1A (Homo sapiens) (UniProt P62942). Description: small-molecule binding to FKBP12 – biophysical, NMR detection (AID 608). The note with it: purified FKBP12.
Peptidyl-prolyl cis-trans isomerase FKBP1A (Homo sapiens), sequence (P62942 whole entry, looked up): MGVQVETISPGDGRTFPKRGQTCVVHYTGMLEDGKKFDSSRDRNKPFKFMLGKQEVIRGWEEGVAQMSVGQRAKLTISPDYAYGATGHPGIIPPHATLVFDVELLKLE
In the case of `CCOC(=O)C1CCNCC1`, the Kd is > 4 mM (inactive).
For `CC(=O)Nc1ccc(S(=O)(=O)N(C)C)cc1`, the Kd is > 4 mM (inactive).
For the molecule `O=Cc1c(N2CCOCC2)nc2ccccn2c1=O`, the Kd was > 4 mM (inactive).
Regarding `CC(=O)O[C@@H]1CC[C@@]2(C)C(CC[C@]3(C)C2CC=C2C4CC(C)(C)CC[C@]4(C(=O)O)CC[C@]23C)C1(C)C` (stereo partly specified), the Kd is > 4 mM (inactive).
Turning to `O=C(/C=C/c1ccccc1)c1ccc(O[C@@H]2O[C@H](CO)[C@@H](O)[C@H](O)[C@H]2O)cc1O`, the Kd was > 4 mM (inactive).
The figure for `COc1cc2c(cc1OC)-c1nnnn1C(C)(C)C2` is > 4 mM (inactive).
`Cn1c(SCC(N)=O)nc2ccccc2c1=O`: the Kd was > 4 mM (inactive).
With `CCc1nnsc1C(=O)Nc1nccs1`, the Kd was > 4 mM (inactive).
Under `O=C(O)CCC(=O)Nc1ccccn1` stands > 4 mM (inactive); under `Cc1nnc(NCCCO)[nH]c1=O`, > 4 mM (inactive).
`Cc1noc(C)c1C(=O)Nc1ccc2c(c1)CCC2`: the Kd is > 4 mM (inactive).
Under `Cc1cc(C(F)(F)F)nn1CC(N)=O` stands > 4 mM (inactive); under `CSc1nc(=O)[nH]c2c1CCC2`, > 4 mM (inactive); under `CC(=O)c1sc(NC(=O)C=C(C)C)nc1C`, > 4 mM (inactive).
Under `C[C@@H]1[C@H]2[C@H](O[C@@H]3O[C@H](CO)[C@@H](O)[C@H](O)[C@H]3O)OC=C(C(=O)O)[C@H]2C[C@@H]1O` stands > 4 mM (inactive).
Under `CC(=O)c1c(C)nc(C)nc1NC(=O)C(C)C` stands > 4 mM (inactive); under `S=c1nc(C2CC2)[nH]c2ccccc12`, > 4 mM (inactive).
As to `Cc1nc2ccc(C(=O)N3CCSCC3)cc2s1`, the Kd was > 4 mM (inactive).
In the case of `COC(=O)CCSCC(=O)Nc1nnc(C)s1`, the Kd was > 4 mM (inactive).
The figure for `NC(=O)C1(S(=O)(=O)c2ccccc2)CC1` is > 4 mM (inactive); for `CC(C)CC(=O)Nc1c[nH]c(=O)[nH]c1=O` it is > 4 mM (inactive).
With `O=c1ccc2cc(O[C@@H]3O[C@H](CO)[C@@H](O)[C@H](O)[C@H]3O)c(O)cc2o1`, the Kd is > 4 mM (inactive).
With `CCNC(=S)NS(=O)(=O)c1ccccc1`, the Kd is > 4 mM (inactive).
In the case of `CCOC(=O)C1C(C=C(C)C)C1(C)C` (stereo unspecified), the Kd is > 4 mM (inactive).
On to `Cc1ccc(C(=O)N2CCC(C(N)=O)CC2)c(Cl)c1`, for which the Kd is > 4 mM (inactive).
Regarding `Nc1ccc2c(c1)OCO2`, the Kd was > 4 mM (inactive).
Under `Cn1c(NCC(=O)O)nc2c1c(=O)[nH]c(=O)n2C` stands > 4 mM (inactive).
The figure for `O=C(NC1CSCC1O)c1ccccc1` (stereo unspecified) is > 4 mM (inactive); for `Cc1nc2ccccc2c2c1C(=O)N(C)C2=O` it is > 4 mM (inactive); for `CCOc1cc(S(=O)(=O)N2CCOCC2)ccc1F` it is > 4 mM (inactive).
Turning to `COc1cccc(OC)c1C(=O)N1CCOCC1`, the Kd was > 4 mM (inactive).
Under `CC(=O)NC(O)C(=O)c1cccs1` (stereo unspecified) stands > 4 mM (inactive).
On to `O=C(COc1ccccc1Cl)N1CCCC1`, for which the Kd was > 4 mM (inactive).
With `CC(=O)Nc1ccn(Cc2c(F)cccc2Cl)n1`, the Kd is > 4 mM (inactive).
As to `Nc1ccc(Cc2ccncc2)cc1`, the Kd was > 4 mM (inactive).
Turning to `NCc1n[nH]c(=O)c2ccccc12`, the Kd was > 4 mM (inactive).
For `Cc1cc(Cl)ccc1OCC(=O)N1CCOCC1`, the Kd result was “inactive”.
The figure for `Cc1ncc(C(=O)O)c(-c2ccccc2)n1` is > 4 mM (inactive); for `CN(Cc1nc2ccccc2n1C)S(C)(=O)=O` it is > 4 mM (inactive).
Under `COC(=O)c1cccnc1Oc1ccccc1` stands > 4 mM (inactive); under `O=C(NCc1ccccc1)c1ccc[n+]([O-])c1`, > 4 mM (inactive).
Under `c1ccc(C[N+]23CCN(CC2)CC3)cc1` stands > 4 mM (inactive); under `Cc1nnc2sc(-c3csc4c3CCCC4)nn12`, > 4 mM (inactive).
For `NS(=O)(=O)c1ccc(N2CCCC2=O)cc1`, the Kd was > 4 mM (inactive).
`Cc1nn2c(=O)nc3sc4c(c3c2[nH]c1=O)CCCC4`: the Kd is > 4 mM (inactive).
Regarding `O=S(=O)(Nc1ccc2c(c1)oc1ccccc12)N1CCCCC1`, the Kd was > 4 mM (inactive).
Turning to `COc1cc2c(cc1OC)[C@@H]1C(=O)c3ccc4oc(C(C)C)cc4c3O[C@@H]1CO2`, the Kd was > 4 mM (inactive).
Consider `NC(=O)C1CCN(C(=O)c2ccco2)CC1`, for which the Kd is > 4 mM (inactive).
As to `Nc1ccc(CN2CCOCC2)cc1`, the Kd is > 4 mM (inactive).
For the molecule `Cc1cc(OC(=O)c2c(C)cc(O)cc2O)cc(O)c1C(=O)O`, the Kd is > 4 mM (inactive).
`c1ccc(-c2nnc(CNCc3ccco3)o2)cc1`: the Kd is > 4 mM (inactive).
With `NC1=NC(=O)C(CC(=O)Nc2ccccc2F)S1` (stereo unspecified), the Kd is > 4 mM (inactive).
For the molecule `COc1cc(C(=O)NCC2CCCO2)cc(OC)c1OC` (stereo unspecified), the Kd is > 4 mM (inactive).
For `CC(C)Oc1ccc(NC(N)=O)cc1`, the Kd is > 4 mM (inactive).
`CC(=O)NC(NC(C)=O)c1ccccc1`: the Kd was > 4 mM (inactive).
As for `Cc1csc(SCC(=O)N2CCCC2)n1`, the Kd is > 4 mM (inactive).
Turning to `Cc1nnc(NCCN2CCOCC2)[nH]c1=O`, the Kd was > 4 mM (inactive).
Consider `COc1ccc2c(c1)OC/C(=C/c1ccc(OC)c(OC)c1)C2=O`, for which the Kd was > 4 mM (inactive).
For `c1ccc(-c2n[nH]c(-c3ccccn3)n2)nc1`, the Kd was > 4 mM (inactive).
As for `Cc1ccnc(NS(=O)(=O)c2cccs2)c1`, the Kd is > 4 mM (inactive).
For the molecule `CC(=O)Oc1cc(-c2coc3cc(OC(C)=O)c(OC(C)=O)c(OC(C)=O)c3c2=O)cc(OC(C)=O)c1OC(C)=O`, the Kd is > 4 mM (inactive).
`CCC(C)C(=O)O[C@H]1[C@H](O)C2C(CN3CC(C)CCC3[C@@]2(C)O)C2C[C@]34O[C@]5(O)C(OC(=O)C(C)(O)C(C)O)CC[C@@]3(C)C5C(OC(C)=O)[C@@H](OC(C)=O)C4[C@@]21O` (stereo partly specified): the Kd was > 4 mM (inactive).
Consider `O=C1c2ccc(F)cc2C(=O)N1CO`, for which the Kd is > 4 mM (inactive).
The figure for `OCc1ccc(-c2cccs2)s1` is > 4 mM (inactive); for `Cc1nc(NC(=O)c2cccnc2)ccc1Br` it is > 4 mM (inactive); for `C=C(C)C1(O)OC(=O)C=C1OC` (stereo unspecified) it is > 4 mM (inactive).
The figure for `NC(=O)CC1Sc2ccccc2NC1=O` (stereo unspecified) is > 4 mM (inactive); for `O=C(COc1ccccc1)N1CCOCC1` it is “inactive”; for `Cc1cc(OC(=O)c2ccco2)c([N+](=O)[O-])c(=O)[nH]1` it is > 4 mM (inactive).
For `O=C(O)C1=Cc2ccccc2OC1`, the Kd was > 4 mM (inactive).
As to `Nc1cccc(S(N)(=O)=O)c1`, the Kd is > 4 mM (inactive).
With `Cn1cnnc1SCC(=O)Nc1ccccc1`, the Kd is > 4 mM (inactive).
The figure for `CNS(=O)(=O)c1cccs1` is > 4 mM (inactive).
The figure for `CC(C)CCCC(C)[C@H]1CCC2C3CC=C4CC(=O)CC[C@]4(C)C3CC[C@@]21C` (stereo partly specified) is > 4 mM (inactive); for `CC1(C)C2CC[C@]3(C)C(C(=O)C=C4[C@H]5C[C@@](C)(C(=O)O)CC[C@]5(C)CC[C@]43C)[C@@]2(C)CC[C@@H]1O` (stereo partly specified) it is > 4 mM (inactive); for `COC(=O)[C@H]1[C@H]2C[C@H]3c4[nH]c5ccccc5c4CCN3C[C@H]2CC[C@@H]1O` it is > 4 mM (inactive).
`Cc1sc2nc[nH]c(=S)c2c1C`: the Kd is > 4 mM (inactive).
With `Nc1ccc(-c2csnn2)cc1`, the Kd is > 4 mM (inactive).
On to `COc1cc(C(=S)N2CCOCC2)ccc1O`, for which the Kd is > 4 mM (inactive).
Regarding `O=C(c1ccco1)N1CCN(Cc2cccc(F)c2)CC1`, the Kd was > 4 mM (inactive).
As to `COCC(=O)Nc1cccc(Br)c1`, the Kd was > 4 mM (inactive).
In the case of `CCOC(=O)C1CN(C)CCN1C` (stereo unspecified), the Kd was > 4 mM (inactive).
Take `O=c1[nH]c(CN2CCN(CCO)CC2)nc2ccccc12`: the Kd was > 4 mM (inactive).
Regarding `C=CCc1cc(C(=O)N2CCCCC2)ccc1O`, the Kd was > 4 mM (inactive).
Regarding `O=C(O)CS(=O)(=O)c1ccccc1`, the Kd was > 4 mM (inactive).
With `Cc1nc2ccc(C(=O)O)cc2nc1C`, the Kd is > 4 mM (inactive).
As for `O=C(c1cccnc1Cl)N1CCOCC1`, the Kd was > 4 mM (inactive).
Consider `C=C1CCC(=O)C(C)CCC2C1CC2(C)C` (stereo unspecified), for which the Kd is > 4 mM (inactive).
As for `O=C(O)c1ccc(Nc2nncc(=O)[nH]2)cc1`, the Kd was > 4 mM (inactive).
As for `CCOc1ccc(Cl)cc1S(=O)(=O)N1CCCC1`, the Kd is > 4 mM (inactive).
Under `CNC(=O)n1ccc(C(=O)N2CCCCC2)n1` stands > 4 mM (inactive).
Turning to `CCN1CC2(C)CC[C@H](OC)[C@]34C2[C@H](O)C2(OCO[C@@]25C[C@H](OC)[C@H]2C[C@]3(O)C5[C@H]2O)C14`, the Kd is > 4 mM (inactive).
On to `COc1cc(OC)c2c(c1Cl)OC1(C2=O)C(O)=CC(=O)CC1C` (stereo unspecified), for which the Kd is > 4 mM (inactive).
Under `CNCc1ccco1` stands > 4 mM (inactive); under `CC1CCN(C(=O)c2ccc3c(c2)OCCO3)CC1`, > 4 mM (inactive); under `CCNC(=O)CC[C@H](N)C(=O)O`, > 4 mM (inactive).
Take `Nc1ccc2nccnc2c1`: the Kd was > 4 mM (inactive).
In the case of `Cc1nc2ccccc2c(=O)n1/N=C/c1ccncc1`, the Kd was > 4 mM (inactive).
`CC[C@]12CCCN3CCc4c(n(c5ccccc45)[C@](O)(C(=O)OC)C1)[C@@H]32`: the Kd is > 4 mM (inactive).
For `COC(=O)N(c1ccccc1)P1(=S)OCCO1`, the Kd was > 4 mM (inactive).
Take `COc1ccc2cc1Oc1ccc(cc1)C[C@H]1c3cc(c(OC)cc3CCN1C)Oc1c(OC)c(OC)cc3c1[C@H](C2)N(C)CC3`: the Kd is > 4 mM (inactive).

One may read the Kd as the constant that tells how readily two partners part at equilibrium.
